As a reminder, the IC50 is the concentration at which inhibition is half-maximal. Low readings indicate inhibition by little substance, high ones a need for much substance.

This assay addresses Gamma-aminobutyric acid receptor subunit alpha-1/beta-2/gamma-2 (Rattus norvegicus, UniProt P18508+P62813+P63138). Put plainly: [35S]TBPS Binding Assay. Particulars: pH 7.4; 25 °C. Here is the method:
Briefly, aliquots of membrane solution (0.5 mg/mL final protein concentration in assay) were incubated with 5 μM GABA, 2 nM [35S]TBPS (45−120 Ci/mmol), and 5 μL aliquots of steroid in DMSO solution (final assay concentrations ranged from 1 nM to 10 μM), and brought to a final volume of 1 mL with 200 mM NaCl, 50 mM potassium phosphate buffer, pH 7.4. […] Assay tubes were incubated for 2 h at room temperature.

Gamma-aminobutyric acid receptor subunit alpha-1/beta-2/gamma-2, sequence (P62813 whole entry): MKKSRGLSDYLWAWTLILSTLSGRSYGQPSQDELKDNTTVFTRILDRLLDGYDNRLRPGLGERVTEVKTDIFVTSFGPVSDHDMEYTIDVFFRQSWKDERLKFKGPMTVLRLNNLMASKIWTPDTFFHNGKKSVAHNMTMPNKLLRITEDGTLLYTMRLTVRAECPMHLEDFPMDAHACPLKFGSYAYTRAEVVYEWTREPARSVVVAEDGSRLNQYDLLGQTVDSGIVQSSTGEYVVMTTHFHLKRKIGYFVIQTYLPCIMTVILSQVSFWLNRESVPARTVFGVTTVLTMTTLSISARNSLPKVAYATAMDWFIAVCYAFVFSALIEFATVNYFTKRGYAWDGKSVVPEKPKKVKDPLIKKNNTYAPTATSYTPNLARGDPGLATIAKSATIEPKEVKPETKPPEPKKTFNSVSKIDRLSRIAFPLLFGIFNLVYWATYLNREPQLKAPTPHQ
Gamma-aminobutyric acid receptor subunit alpha-1/beta-2/gamma-2, sequence (P63138 whole entry): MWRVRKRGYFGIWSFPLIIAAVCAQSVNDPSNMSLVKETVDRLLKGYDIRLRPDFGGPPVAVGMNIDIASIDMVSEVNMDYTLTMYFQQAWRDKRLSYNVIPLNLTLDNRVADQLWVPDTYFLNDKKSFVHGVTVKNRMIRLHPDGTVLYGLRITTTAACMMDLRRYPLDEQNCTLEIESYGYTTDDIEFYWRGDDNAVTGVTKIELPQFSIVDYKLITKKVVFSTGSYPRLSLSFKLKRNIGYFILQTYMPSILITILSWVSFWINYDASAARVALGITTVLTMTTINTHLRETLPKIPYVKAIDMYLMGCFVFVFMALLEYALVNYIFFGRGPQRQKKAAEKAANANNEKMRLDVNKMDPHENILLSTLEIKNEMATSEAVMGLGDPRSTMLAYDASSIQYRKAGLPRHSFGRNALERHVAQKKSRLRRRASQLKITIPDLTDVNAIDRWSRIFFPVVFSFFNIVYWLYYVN
Gamma-aminobutyric acid receptor subunit alpha-1/beta-2/gamma-2, sequence (P18508 whole entry): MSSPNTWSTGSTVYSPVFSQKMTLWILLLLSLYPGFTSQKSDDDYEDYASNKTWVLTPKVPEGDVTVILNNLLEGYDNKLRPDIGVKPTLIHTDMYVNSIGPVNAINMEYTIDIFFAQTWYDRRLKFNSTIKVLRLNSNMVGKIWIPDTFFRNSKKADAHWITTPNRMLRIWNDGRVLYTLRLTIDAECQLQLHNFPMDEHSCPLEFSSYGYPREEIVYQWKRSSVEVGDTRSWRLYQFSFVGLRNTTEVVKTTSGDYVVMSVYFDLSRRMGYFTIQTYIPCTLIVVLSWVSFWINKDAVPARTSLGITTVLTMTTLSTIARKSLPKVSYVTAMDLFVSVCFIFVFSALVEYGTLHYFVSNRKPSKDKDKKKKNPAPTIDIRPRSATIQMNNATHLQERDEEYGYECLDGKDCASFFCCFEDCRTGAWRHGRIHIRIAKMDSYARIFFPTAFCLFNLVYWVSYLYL

`C[C@]12CC[C@@H](O)C[C@@H]1CC[C@@H]1[C@@H]2C(=O)C[C@]2(C)C(C=O)=CC[C@@H]12` [US9388210, 5a] had an IC50 of 997 nM. In turn, `C[C@]12CC[C@@H](O)C[C@@H]1CC[C@H]1[C@@H]3CC[C@H](C=O)[C@@]3(C)CC(=O)[C@@H]12` [US9388210, 5b] had an IC50 of 770 nM.

The values are drawn from BindingDB's records for patent US9388210 (Washington University, 2016).
